Measured values from patent US8822467B2 (Ligand Pharmaceuticals Inc., priority 2009, dated 2014).

These compounds were tested against T1, human CRTH2 (Homo sapiens, UniProt Q9Y5Y4) (assay: [35S]GTPγS binding assay (SPA) on membranes from CHO-K1 cells stably expressing human CRTH2, stimulated with 60 nM DHK-PGD2). Conditions: potency class symbols; Table 2; read-out: CRTH2 hGTPγS IC50.
T1 construct: expressed in transfected cells
T1 sequence (Q9Y5Y4 1-395): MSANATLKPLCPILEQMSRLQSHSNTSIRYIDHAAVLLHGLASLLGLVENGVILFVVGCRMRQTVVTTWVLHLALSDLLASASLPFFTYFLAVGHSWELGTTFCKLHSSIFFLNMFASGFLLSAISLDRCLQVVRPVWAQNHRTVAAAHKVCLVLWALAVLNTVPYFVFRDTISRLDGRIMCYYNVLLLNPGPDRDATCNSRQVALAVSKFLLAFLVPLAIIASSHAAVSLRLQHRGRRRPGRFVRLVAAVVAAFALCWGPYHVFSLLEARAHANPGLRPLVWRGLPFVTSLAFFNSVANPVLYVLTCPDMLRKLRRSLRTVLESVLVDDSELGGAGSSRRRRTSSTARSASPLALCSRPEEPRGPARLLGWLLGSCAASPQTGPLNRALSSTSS
Assay type: biochemical
Procedure, shortened: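 Read-out is scintillation proximity: bound [35S]GTPγS (500 pM, with 10 μM GDP) was counted 4 h after centrifuging a 2 h ambient-temperature incubation. Reactions held 4 μg human CRTH2 CHO-K1 membrane protein, 60 nM DHK-PGD2 agonist and test compounds at increasing concentrations. Buffer: 20 mM HEPES pH 7.4, 10 mM MgCl2, 300 mM NaCl, 0.2% BSA, 1% DMSO.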
In the case of `CN(Cc1ccc(OCC(=O)O)c(-c2ccc(F)c(Cl)c2)c1)S(=O)(=O)c1ccc(F)cc1` [Example 157, 2-(3-chloro-4-fluorophenyl)-4-((4-fluoro-N-methylphenylsulfonamido)methyl)phenoxyacetic acid], the IC50 is reported as 1 to 10 µM. `CC(C)N(Cc1ccc(OCC(=O)O)c(-c2cccc(C(F)(F)F)c2)c1)S(=O)(=O)c1ccc(F)cc1` [Example 158, 2-(3-trifluoromethylphenyl)-4-((4-fluoro-N-isopropylphenylsulfonamido)methyl)phenoxyacetic acid] showed an IC50 of 1 to 10 µM. Work on `CN(Cc1ccc(OCC(=O)O)c(-c2cccc(C(F)(F)F)c2)c1)S(=O)(=O)Cc1ccccc1` [Example 159, 2-(3-trifluoromethylphenyl)-4-((N-methylbenzylsulfonamido)methyl)phenoxyacetic acid] yielded an IC50 of 1 to 10 µM. In the case of `Cc1noc(C)c1S(=O)(=O)N(C)Cc1ccc(OCC(=O)O)c(-c2cccc(C(F)(F)F)c2)c1` [Example 160, 2-(3-trifluoromethylphenyl)-4-((N,3,5-trimethylisoxazole-4-sulfonamido)methyl)phenoxyacetic acid], the IC50 is reported as 1 to 10 µM. In the case of `CN(Cc1cc(F)c(OCC(=O)O)c(-c2cccc(C(F)(F)F)c2)c1)S(=O)(=O)c1ccc(F)cc1` [Example 161, 2-(3-trifluoromethylphenyl)-4-((4-fluoro-N-methylphenylsulfonamido)methyl)-6-fluorophenoxyacetic acid], the IC50 is reported as 1 to 10 µM. Work on `CN(Cc1ccc(OCC(=O)O)c(-c2ccc(C(F)(F)F)cc2)c1)S(=O)(=O)c1ccc(F)cc1` [Example 162, 2-(4-trifluoromethylphenyl)-4-((4-fluoro-N-methylphenylsulfonamido)methyl)phenoxyacetic acid] yielded an IC50 of 1 to 10 µM. For `CN(Cc1ccc(OCC(=O)O)c(-c2cccc(Cl)c2)c1)S(=O)(=O)c1ccc(F)cc1` [Example 163, 2-(3-chlorophenyl)-4-((4-fluoro-N-methylphenylsulfonamido)methyl)phenoxyacetic acid], the IC50 was 1 to 10 µM. With `COc1ccc(-c2cc(CN(C)S(=O)(=O)c3ccc(F)cc3)ccc2OCC(=O)O)cc1` [Example 164, 2-(4-methoxyphenyl)-4-((4-fluoro-N-methylphenylsulfonamido)methyl)phenoxyacetic acid] the IC50 was 1 to 10 µM. For `CN(Cc1ccc(OCC(=O)O)c(-c2ccc(Cl)cc2)c1)S(=O)(=O)c1ccc(F)cc1` [Example 165, 2-(4-chlorophenyl)-4-((4-fluoro-N-methylphenylsulfonamido)methyl)phenoxyacetic acid], the IC50 was 1 to 10 µM. Compound `CN(Cc1ccc(OCC(=O)O)c(-c2cc(F)ccc2F)c1)S(=O)(=O)c1ccccc1` [Example 166, 2-(2,5-difluorophenyl)-4-((N-methylphenylsulfonamido)methyl)phenoxyacetic acid] has an IC50 of 1 to 10 µM. Compound `CN(Cc1ccc(OCC(=O)O)c(-c2cccc(Cl)c2)c1)S(=O)(=O)c1ccccc1` [Example 167, 2-(3-chlorophenyl)-4-((N-methylphenylsulfonamido)methyl)phenoxyacetic acid] has an IC50 of 1 to 10 µM. `CN(Cc1ccc(OCC(=O)O)c(-c2cc(C(F)(F)F)ccn2)c1)S(=O)(=O)c1ccc(F)cc1` [Example 168, 2-(4-trifluoromethylpyridinyl)-4-((4-fluoro-N-methylphenylsulfonamido)methyl)phenoxyacetic acid] showed an IC50 of 1 to 10 µM. Work on `CN(Cc1ccc(OCC(=O)O)c(-c2ccccc2)c1)S(=O)(=O)c1ccccc1` [Example 169, 2-phenyl-4-((N-methylphenylsulfonamido)methyl)phenoxyacetic acid] yielded an IC50 of 1 to 10 µM. Compound `CN(Cc1ccc(OCC(=O)O)c(-c2cccc(C(F)(F)F)c2)c1)S(=O)(=O)c1ccccc1Cl` [Example 170, 2-(3-trifluoromethylphenyl)-4-((2-chloro-N-methylphenylsulfonamido)methyl)phenoxyacetic acid] has an IC50 of 1 to 10 µM. Compound `Cc1noc(C)c1-c1cc(CN(C)S(=O)(=O)c2ccc(F)cc2)ccc1OCC(=O)O` [Example 171, 2-(3,5-dimethylisoxazol-4-yl)-4-((4-fluoro-N-methylphenylsulfonamido)methyl)phenoxyacetic acid] has an IC50 of 1 to 10 µM. Compound `CN(Cc1ccc(OCC(=O)O)c(-c2cncnc2)c1)S(=O)(=O)c1ccccc1` [Example 172, 2-(pyrimidin-5-yl)-4-((N-methylphenylsulfonamido)methyl)phenoxyacetic acid] has an IC50 of 1 to 10 µM. With `CN(Cc1ccc(OCC(=O)O)c(-c2cccc(C(F)(F)F)c2)c1)S(=O)(=O)c1ccccn1` [Example 173, 2-(3-trifluoromethylphenyl)-4-((N-methylpyridine-2-sulfonamido)methyl)phenoxyacetic acid] the IC50 was 1 to 10 µM. `CC(C)N(Cc1ccc(OCC(=O)O)c(-c2cccc(C(F)(F)F)c2)c1)S(=O)(=O)c1cc(F)cc(F)c1` [Example 174, 2-(3-trifluoromethylphenyl)-4-((3,5-difluoro-N-isopropylphenylsulfonamido)methyl)phenoxyacetic acid] gave an IC50 of 1 to 10 µM. For `CN(Cc1ccc(OCC(=O)O)c(-c2cccc(C(=O)N3CCOCC3)c2)c1)S(=O)(=O)c1ccc(F)cc1` [Example 175, 2-(3-morpholinocarbonylphenyl)-4-((4-fluoro-N-methylphenylsulfonamido)methyl)phenoxyacetic acid], the IC50 was 1 to 10 µM. Compound `CN(Cc1ccc(OCC(=O)O)c(-c2ccc[n+]([O-])c2)c1)S(=O)(=O)c1ccc(F)cc1` [Example 176, 2-(N-oxy-pyridine-3-yl)-4-((4-fluoro-N-methylphenylsulfonamido)methyl)phenoxyacetic acid] has an IC50 of 1 to 10 µM. `CN(Cc1ccc(OCC(=O)O)c(-c2ccccc2Cl)c1)S(=O)(=O)c1ccc(F)cc1` [Example 177, 2-(2-chlorophenyl)-4-((4-fluoro-N-methylphenylsulfonamido)methyl)phenoxyacetic acid] was tested, and the IC50 was 1 to 10 µM. In the case of `CN(Cc1ccc(OCC(=O)O)c(-c2ccccc2)c1)S(=O)(=O)c1ccc(F)cc1` [Example 178, 2-phenyl-4-((4-fluoro-N-methylphenylsulfonamido)methyl)phenoxyacetic acid], the IC50 is reported as 1 to 10 µM. `CN(Cc1ccc(OCC(=O)O)c(-c2ccc(Cl)cc2)c1)S(=O)(=O)c1ccccc1` [Example 179, 2-(4-chlorophenyl)-4-((N-methylphenylsulfonamido)methyl)phenoxyacetic acid] showed an IC50 of 1 to 10 µM. `CN(Cc1ccc(OCC(=O)O)c(-c2cccc3ncccc23)c1)S(=O)(=O)c1ccc(F)cc1` [Example 180, 2-(quinolin-5-yl)-4-((4-fluoro-N-methylphenylsulfonamido)methyl)phenoxyacetic acid] showed an IC50 of 1 to 10 µM. `CN(Cc1ccc(OCC(=O)O)c(-c2cccc(C(F)(F)F)c2)c1)S(=O)(=O)C1CC1` [Example 181, 2-(3-trifluoromethylphenyl)-4-((N-methylcyclopropanesulfonamido)methyl)phenoxyacetic acid] showed an IC50 of 1 to 10 µM. In the case of `CN(C)S(=O)(=O)N(C)Cc1ccc(OCC(=O)O)c(-c2cccc(C(F)(F)F)c2)c1` [Example 182, 2-(3-trifluoromethylphenyl)-4-((N-methyldimethylaminosulfonamido)methyl)phenoxy acetic acid], the IC50 is reported as 1 to 10 µM. For `CN(Cc1ccc(OCC(=O)O)c(-c2ccc3cc[nH]c3c2)c1)S(=O)(=O)c1ccc(F)cc1` [Example 183, 2-(1H-indol-6-yl)-4-((4-fluoro-N-methylphenylsulfonamido)methyl)phenoxyacetic acid], the IC50 was 1 to 10 µM.
